Experimental findings from PMC6283615, “Anilinoquinoline based inhibitors of trypanosomatid proliferation” (PLoS Neglected Tropical Diseases, 2018) are described below.

“Also recorded” adds a separate entry of the source.

Data set [1] concerns L. major amastigote. The data set can be described thus: L. major intracellular amastigote luciferase assay in RAW 264.7 macrophages. To be noted: Leishmania major, RAW264.7; intracellular amastigotes in RAW 264.7 macrophages, 96 h. Type of data set: cell-based, Leishmania major. The method, boiled down: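 Murine RAW 264.7 macrophages were infected overnight with luciferase-expressing L. major metacyclic promastigotes (MOI 1:10). Non-internalized parasites were washed off before 96 h compound exposure (0.5–10,000 ng/mL) at 37°C, 5% CO2.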

The test system of data set [2] is T. congolense IL3000. The data set is described as follows: In vitro drug sensitivity assay for T. congolense (72 h). The class given is cell-based. The settings on record: Trypanosoma congolense, IL3000 strain. The protocol:
In vitro drug sensitivity assay for T. congolense (72 h): Compounds were tested in vitro for efficacy against the IL3000 T. congolense (drug sensitive) strain which was originally derived from the Trans Mara I strain, isolated from a bovine in 1966 in Kenya. […] Compounds were assayed in at least three separate, independent experiments and an 11-point dilution curve was used to determine the EC50 values. Bloodstream form trypanosomes were supported in HMI-9 medium containing 20% bovine serum and were incubated with test compounds for 69 h at 34°C in a humidified atmosphere containing 5% CO2. Thereafter, 10 μL of Resazurin dye (12.5 mg in 100 mL of phosphate-buffered saline, Sigma-Aldrich, Buchs, Switzerland) was added for an additional 3 h. Plates were read using a fluorescence plate reader (Spectramax, Gemini XS, Bucher Biotec, Basel, Switzerland) using an excitation wavelength of 536 nm and an emission wavelength of 588 nm.

Data set [3] deals with T. vivax STIB 719 / ILRAD 560. The data set can be described thus: Ex vivo drug sensitivity assay for T. vivax (48 h). Type of data set: cell-based. To be noted: Trypanosoma vivax, STIB719, 48 h. The protocol: Ex vivo drug sensitivity assay for T. vivax (48 h): Compounds were tested ex vivo against the STIB 719 / ILRAD 560 T. vivax (drug sensitive) strain which originated from the Y486 strain, isolated from a naturally infected bovine in 1976 in Zaria, Nigeria. Compounds were assayed in at least three separate, independent experiments and an 11-point dilution curve was used to determine the EC50 values. Bloodstream form trypanosomes were harvested from a highly parasitaemic mouse (via cardiac puncture) and were incubated with test compounds for 45 h at 37°C in a humidified atmosphere containing 5% CO2, supported in HMI-9 medium containing 20% bovine serum. Thereafter, Resazurin dye was added to monitor trypanosome viability as described in the preceding section.

Data set [4] can be described thus: Human liver microsome intrinsic clearance. Type of data set: in vitro ADME.
A short description of data set [5]: Rat hepatocyte intrinsic clearance. Type of data set: in vitro ADME. The settings on record: hepatocytes.
Data set [6] can be described thus: LogD7.4. Type of data set: physicochemical. The settings on record: pH 7.4.
Data set [7] deals with T. brucei brucei CA427. The data set is described as follows: Murine model of acute HAT (T. b. brucei infected mice). Type of data set: in vivo. On the procedure: Bloodstream form (BSF) T. brucei brucei CA427 parasites were maintained at densities below 1×10^6 cells/mL in HMI-9 media supplemented with 10% fetal bovine serum (Atlanta Biologicals), 10% SERUM PLUS (Sigma), and 1% Antibiotic-Antimycotic Solution (Corning cellgro) at 37°C, 5% CO2 [18]. Parasites were centrifuged at 5000 xg for 3 min at room temperature and resuspended in cold 1xPBS containing 1% glucose to yield a solution of 2.5×10^6 cells/mL. Correct cell density following resuspension was confirmed using a Z2 Coulter Counter (Beckman). Parasite viability was observed by motility with a Neubauer Bright-line hemocytometer. Cells were kept on ice until infection.
Compound 14 –on day 0, female Swiss-Webster mice (8–10 weeks old, 20–25 g, n = 4 per group) (Harlan) were infected i.p. with 2.5×10^5 trypanosomes by injecting 100 μL of resuspension using 26G needles. Day 1 to 3 post-infection, mice received a single i.p. dose of either drug vehicle (dimethylsulfoxide, 3.4 mL/kg) (Fisher Scientific) or drug (14, 25 mg/kg). Parasitemia was determined on days 2 and 3 post-infection by collecting 3 μL of blood from the tail vein.
Day 1 to 3 post-infection, mice received a single p.o. dose of either drug vehicle (10% NMP and 90% PEG, 10 mL/kg) (Fisher Scientific) or drug (22, 60 mg/kg). From days 4 to 6, the dose was increased to 70 mg/kg for the mice in the treatment group. Parasitemia was determined on days 3 to 6 post-infection by collecting 3 μL of blood from the tail vein.
Blood samples were mixed with 21 μL of RBC Lysis Solution (Qiagen) and incubated at room temperature for 15–45 min prior to observing for parasites by hemocytometer. Humane euthanasia by CO2 overdose followed by incision to form a bilateral pneumothorax was conducted on mice at study termination. All animal experimental protocols were approved and performed in accordance with the guidelines of the Institutional Animal Care and Use Committee (IACUC) at the University of Georgia.

`CN1CCN(c2ncc(-c3ccc4c(Nc5cnccn5)ccnc4c3)cn2)CC1` [Compound 22]: the concentration for a half-maximal effect (EC50) in data set [1] amounted to 2.5 µM; in data set [2], 0.05 µM; in data set [3], 0.72 µM. In data set [4], the “Human Liver Microsome CLint” value amounted to 180 µL/min/mg. Moreover, in data set [5], the hepatocyte CLint was found to be 130 µL/min/1e6 cells. For the same compound, the LogD7.4 in data set [6] was 3.3. In addition, the “Parasitemia vs control group” value in data set [7] (p.o. once daily 60 mg/kg days 1-3, then 70 mg/kg, by day 5, vehicle 10% NMP 90% PEG) was “no statistically significant difference; also recorded: failed to affect parasitemia”. The “Toxicity in infected mice” value in data set [7] (p.o. once daily 60 mg/kg, first three days) is listed as “no signs of toxicity”.
Regarding `CN1CCN(c2ncc(-c3ccc4c(Nc5ccc(OCc6cccc(F)c6)c(Cl)c5)ccnc4c3)cn2)CC1` [Compound 14], the values for the EC50 in data set [1], in data set [2] and in data set [3] were 1.5 µM, 0.16 µM and 0.2 µM, respectively. The compound also came in with an intrinsic clearance (microsomal CLint) in data set [4] (liver microsomes) of 54 µL/min/mg. Moreover, in data set [5], the intrinsic metabolic clearance (hepatocyte CLint) came out at 24 µL/min/1e6 cells. Besides, in data set [6], the logD is 3.4. The “Toxicity in infected mice” value in data set [7] (25 mg/kg i.p.) is listed as “no evidence of toxicity”. Besides, the “Mice showing 10-fold reduction in parasitemia” value in data set [7] (25 mg/kg i.p., n = 4) was determined as 75%. Moreover, the “Mice with no detectable parasitemia” value in data set [7] (25 mg/kg i.p., n = 4) is listed as “one had no detectable parasitemia”. The same compound registered a Reduction in parasitemia in data set [7] (25 mg/kg i.p., vs DMSO vehicle) of 10 fold.

One may read the EC50 as the concentration giving half of the maximal effect. Low values mean an effect from little substance, high ones a need for much substance. As a reminder, the hepatocyte CLint is the rate of metabolic loss divided by the concentration. In general, microsomal CLint refers to the capacity of the preparation to metabolise the compound, expressed as a volume cleared per time. Low readings indicate slow turnover, high ones rapid turnover. What is called logD is lipophilicity at a set pH, counting ionised and neutral species. Low values mean lower lipophilicity, high ones higher lipophilicity.
